# According to US20240400536A1, “IDEBENONE DERIVATIVES AND THEIR USE IN TREATING PLANTS” (MITORX THERAPEUTICS LIMITED, priority 2021, published 2024):
# How the values were obtained:
# [1] = system: senescent primary human lung fibroblasts; assay: Cellular bioenergetics (Seahorse OCR) in senescent primary human lung fibroblasts; type: cell-based; conditions: FIG. 4; compounds 0-300 nM; compared to the control (SIP cells without compound)
# Method: Human primary lung fibroblasts were isolated from healthy volunteers and cultured in DMEM supplemented with 10% fetal calf serum and 1% pen/strep and […] L-glutamine, at 37° C., 5% CO2. To induce senescence, cells were seeded at a density of 50,000 cells per well in 250 μl of cell culture media onto Seahorse V7 plates and treated daily with fresh cell culture media containing […] H2O2 for 5 days, cells were then cultured with normal medium for a further 9 days. Senescence was confirmed by microscopy and staining for the senescence marker, senescence-associated-β-galactosidase (SA-βgal; Cell Signalling kit #9860). Cells were then treated with compounds (0-300 nM) for a further 24 h (controls are *SIP cells without compounds) and after this time, cellular bioenergetics determined using a Seahorse XFe24 extracellular flux analyser performed as described below. * SIP-senescence-induced phenotype
# For the mitochondrial stress and glycolytic stress tests (Agilent, UK)Seahorse XFe24 sensor cartridges were hydrated with Seahorse XF calibrant solution and maintained at 37° C. in a non-CO2 incubator overnight. […] After incubation, plates were loaded onto Seahorse XFe24 Analyser and basal oxygen consumption rate (OCR) measured for 3 cycles. […] Extracellular acidification rate (ECAR) and Oxygen consumption rate (OCR) were measured for 3 baseline cycles and injection strategy initiated. […]
# C. elegans = assay: Worm screening: mitochondrial network imaging in ageing C. elegans; type: in vivo; conditions: for reduction of networked mitochondria caused by aging: FIG. 2; for damage caused to mitochondrial network in aging: FIG. 3
# Method: C. elegans strains were cultured at 20° C. on Petri dishes containing nematode growth medium (NGM) agar and a lawn of Escherichia coli OP50, unless stated otherwise. Animals for the study were age-synchronized by gravity synchronization from the L1 stage and allowed to grow to the desired day of adulthood. The C. elegans strains used in this study were Bristol strain N2 (WT) provided by the Caenorhabditis Genetics Center.
# Mitochondrial imaging was used in day 1 adults, with or without treatment, to examine the mitochondrial network. Worms were cultured on test compounds as described. Approximately 20 day 1 adults were picked into 20 μL of M9 buffer on a microscope slide with a coverslip applied. Worms were imaged at 40× magnification using a Nikon Eclipse 50i microscope. The protocol used was as described by Oh and Kim. Briefly animals were assessed at day 4 and day 8 of adulthood, where the number of dead muscle cells was determined by quantifying the number of muscle cells that had lost their distinct circular nuclear GFP signal. Approximately 30 animals were picked into 20 μL of M9 buffer on a microscope slide with a coverslip applied. Worms were imaged at 10× magnification by using a Nikon Eclipse 50i microscope.
# b.End3 cells [2] = assay: Hyperglycaemia-induced mitochondrial dysfunction: mitochondrial superoxide (ROS) production, Mitosox Red; type: cell-based; conditions: 10 days hyperglycaemia, compound added on day 8 for two days
# Method: In order to induce hyperglycemia in b.End3 cells, a literature reported protocol Lorenzi et al 1985; Qu et al 2014] was followed. After trypsinisation, cells were diluted with supplemented DMEM (approximately 2 ml per flask) and consequently, cells from 3 or 4 different flasks were transferred in a 15 ml sterile conical centrifuge tube and centrifuged for 5 minutes, in order to separate the cells from the medium. Following that, the supernatant medium was removed and the cells were gently re-suspended and mixed with approximately 4 ml of fresh supplemented DMEM. 20 μl of this solution was added to 40 μl of trypan blue and 10 μl of the final solution was loaded onto a cell counting slide dual-chamber. Trypan blue allows to distinguish between live and dead cells. Indeed it is impermeable in live cells, while it is absorbed by dead cells. The number of cells per ml was measured using an automated cell counter. […] Cells were cultured for 8 days since, in previous studies, it was determined that this is the minimum amount of time required to induce extensive mitochondrial dysfunction, such as excessive oxidant production and mitochondrial membrane hyperpolarisation Lorenzi et al 1985; Qu et al 2014]
# On day 8, 10 μl/well (1/20 dilution factor) of a solution of an H2S donor or of a control compound or a PBS vehicle solution (with calcium and magnesium salts and 10% DMSO) was administered to cells. […] The cells were incubated for a further two days in the presence of the compound and after ten days of hyperglycaemia exposure, the amount of mitochondrial oxidant and mitochondrial membrane hyperpolarisation were determined. […]
# On day 0, cells (20,000 cell/ml) were plated in a 96-well plate. […] On day 10, mitochondrial dysfunction were determined Lorenzi et al 1985; Qu et al 2014]. […]
# b.End3 cells [3] = assay: Toxicity (TC50); type: cell-based
# b.End3 cells [4] = assay: Hyperglycaemia-induced mitochondrial dysfunction: mitochondrial membrane potential restore; type: cell-based; conditions: compound added on day 8 for two days
# Method: Moreover, in cardiovascular diseases such as hypertension and diabetes a loss of endothelial function and cell death were observed [Poredos et al, 2021].
# In order to induce hyperglycemia in b.End3 cells, a literature reported protocol Lorenzi et al 1985; Qu et al 2014] was followed. After trypsinisation, cells were diluted with supplemented DMEM (approximately 2 ml per flask) and consequently, cells from 3 or 4 different flasks were transferred in a 15 ml sterile conical centrifuge tube and centrifuged for 5 minutes, in order to separate the cells from the medium. Following that, the supernatant medium was removed and the cells were gently re-suspended and mixed with approximately 4 ml of fresh supplemented DMEM. 20 μl of this solution was added to 40 μl of trypan blue and 10 μl of the final solution was loaded onto a cell counting slide dual-chamber. Trypan blue allows to distinguish between live and dead cells. Indeed it is impermeable in live cells, while it is absorbed by dead cells. The number of cells per ml was measured using an automated cell counter. Commonly, the value found was […] and consequently, the cell solution was diluted, in order to obtain a concentration of 20,000 cells/well in the minimum volume necessary to fill a 96-well plate (200 μl/well, ≈13 ml for one plate, since the two external columns and rows were loaded with cell-free medium because they are susceptible to evaporation thus, the cell medium in these wells prevented the external cell-containing wells from evaporating). Cells were cultured overnight in a humidified incubator, in order to allow them to attach to the plate surface. Afterwards, the medium was removed (a part of the plate was kept with normal glucose DMEM as a […]) and supplemented high-glucose DMEM was added. Cells were cultured for 8 days since, in previous studies, it was determined that this is the minimum amount of time required to induce extensive mitochondrial dysfunction, such as excessive oxidant production and mitochondrial membrane hyperpolarisation Lorenzi et al 1985; Qu et al 2014]
# On day 8, 10 μl/well (1/20 dilution factor) of a solution of an H2S donor or of a control compound or a PBS vehicle solution (with calcium and magnesium salts and 10% DMSO) was administered to cells. The final concentration of DMSO in cells was 0.5%: higher DMSO doses may be toxic for the cells. The cells were incubated for a further two days in the presence of the compound and after ten days of hyperglycaemia exposure, the amount of mitochondrial oxidant and mitochondrial membrane hyperpolarisation were determined. Noticeably in this procedure, in order to evaluate the cytoprotective activity of the novel compounds, the drugs were added only after the mitochondrial dysfunction in cells had already occurred. The protocol described is summarised in the scheme below:
# On day 0, cells (20,000 cell/ml) were plated in a 96-well plate. Cells were cultured overnight at 37° C. On day 1, supplemented DMEM was removed and high-glucose supplemented DMEM was added. On day 8, an H2S donor compound (Examples 1-7), a control compound or altematively a vehicle solution was added to cells. On day 10, mitochondrial dysfunction were determined Lorenzi et al 1985; Qu et al 2014].
# Toxicity (TC50) = type: cell-based; conditions: mouse, b.End3 cells
# endothelial cells = conditions: cited from earlier work
# [5] = cited from earlier work
Compound,"IC50 (b.End3 cells [4]; BEND3, 10 days hyperglycaemia) [nM]",reduction of networked mitochondria caused by aging (C. elegans),damage caused to mitochondrial network in aging (C. elegans),IC25 (Mitochondrial ROS level restore) (b.End3 cells [2]) [nM],CC50 (Toxicity (TC50)) [nM],also measured
"CC1=C(CCCCCCCCCC(=O)Nc2ccc(C(N)=S)cc2)C(=O)c2ccccc2C1=O [Example 17, N-(4-carbamothioylphenyl)-10-(3-methyl-1,4-dioxo-1,4-dihydronaphthalen-2-yl)decanamide]",–,–,–,–,–,dysfunction of the mitochondria (loss of OCR) in senescent cells [1]: reversed
"4-(3-sulfanylidene-3H-1,2- dithiol-5-yl)phenyl) 10-(4,5-dimethoxy-2- methyl-2,6-dioxocyclohexa- 1,4-dien-1-yl)decanoate [Example 2]",–,preserved,can be inhibited,10,–,fragmentation of the mitochondrial network caused by ageing (C. elegans; FIG. 1): inhibited; CC50 (b.End3 cells [3]): 130000 nM; IC50 (b.End3 cells [4]; 10 days hyperglycaemia): 6 nM
O=C(CCCCCCCCC[P+](c1ccccc1)(c1ccccc1)c1ccccc1)Oc1ccc(-c2cc(=S)ss2)cc1.[Br-] [AP39],–,–,–,10,–,"ATP production (endothelial cells; endothelial cells): increase; protein persulfidation (endothelial cells; inside the mitochondria): increase; intracellular levels of H2S (endothelial cells; mainly inside the mitochondria, concentration-dependent): increase; aqueous solubility [5]: poor; CC50 (b.End3 cells [3]): 8000 nM; IC50 (b.End3 cells [4]; 10 days hyperglycaemia): 4 nM"
COC1=C(OC)C(=O)C(CCCCCCCCCCO)=C(C)C1=O [idebenone],–,not,not,–,–,–
"Oc1ccc(-c2cc(=S)ss2)cc1 [ADTOH, 5-(4-hydroxyphenyl) -3H-1,2-dithiole-3-thione]",–,not,not,–,–,–

# Continued, in another order:
"IC50 (b.End3 cells [4]; BEND3, 10 days hyperglycaemia) [nM]",Compound,reduction of networked mitochondria caused by aging (C. elegans),damage caused to mitochondrial network in aging (C. elegans),IC25 (Mitochondrial ROS level restore) (b.End3 cells [2]) [nM],CC50 (Toxicity (TC50)) [nM],also measured
0.4,"COC1=C(OC)C(=O)C(CCCCCCCCCCOC(=O)COc2ccc(-c3cc(=S)ss3)cc2)=C(C)C1=O [Example 1, 10-(4,5-dimethoxy-2-methyl-3,6-dioxocyclohexa-1,4-dien-1-yl)decyl 2-[4-(3-sulfanylidene-3H-1,2-dithiol-5-yl)phenoxy]acetate]",–,–,6.5,147000,–
1,"COC1=C(OC)C(=O)C(CCCCCCCCCC(=O)Oc2ccc(C(N)=S)cc2)=C(C)C1=O [Example 4, 4-carbamothioylphenyl 10-(4,5-dimethoxy-2-methyl-3,6-dioxocyclohexa-1,4-dien-1-yl)decanoate]",–,–,–,100000,–
5,"COC1=C(OC)C(=O)C(CCCCCCCCCC(=O)Oc2ccc(-c3cc(=O)ss3)cc2)=C(C)C1=O [Example 3, 4-(3-oxo-3H-1,2-dithiol-5-yl)phenyl 10-(4,5-dimethoxy-2-methyl-3,6-dioxocyclohexa-1,4-dien-1-yl)decanonate]",–,–,–,76000,–
